Experimental data taken from the supplement of paper PMC11208160.

Assay: recombinant barcode read abundance after kanamycin selection (control-corrected) (log10(CPM+1)); higher = more efficient recombination; sequences stand for … in AGTGCAGAGAAAATCGGCCAGTTTTCTCTGCCTGCAGTCCGCATGCCGT…AGATTTATGCAGCGGACTGCCTTTCTCCCAAAGTGATAAACCGGACAGTATCATGGACCGGTTTTCCCGGTAATCCGTATTTGCAAGGTTGGTTTCACT; site = the 11-nt target
Method in brief: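 IS621 bridge RNA target-binding loops were paired with targets in a pooled library tested in E. coli. After co-electroporation with a donor plasmid, cells were plated in two replicates on chloramphenicol/ampicillin LB agar (control) and on chloramphenicol/ampicillin/kanamycin carrying 0.1 mM IPTG. Barcodes at recombinant junctions were counted as counts per million, averaged and control-corrected to give recombination efficiency. Values are log10(CPM+1).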
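Further: IS621 recombinase and bridge RNA in Escherichia coli cells.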

Row | Sequence | recombinant barcode read abundance (log10)
1 | TAGCTCCCTTGGGTTCTAACCTGTTGCCG (site TAGCTCCCTCG) | 1.43
2 | TAGCTCCCTTGGGTTCTAACCTGTTGCCG (site TAGCTCCCTGG) | 0.238
3 | TAGCTCCCTTGGGTTCTAACCTGTTGCCG (site TAGCTCCCTTG) | 0.379
4 | TAGCTCCCTTGGGTTCTAACCTGTTGCCT (site TAGCTCCCTAG) | 1.21
5 | TAGCTCCCTTGGGTTCTAACCTGTTGCCT (site TAGCTCCCTCG) | 0.0637
6 | TAGCTCCCTTGGGTTCTAACCTGTTGCCT (site TAGCTCCCTGG) | 0.105
7 | TAGCTCCCTTGGGTTCTAACCTGTTGCCT (site TAGCTCCCTTG) | 0.016
8 | TAGCTGACTTGGGTTCTAACCTGTTGCCT (site TAGCAGACTAG) | 1.14
9 | TAGCTGACTTGGGTTCTAACCTGTTGCCT (site TAGCCGACTAG) | 0.624
10 | TAGCTGACTTGGGTTCTAACCTGTTGCCT (site TAGCGGACTAG) | 0.194
11 | TAGCTGACTTGGGTTCTAACCTGTTGCCT (site TAGCTGACTAG) | 1.28
12 | TAGGAACCTTGGGTTCTAACCTGTTGCGT (site GAGGAGCCTAC) | 0.022
13 | TAGGAACCTTGGGTTCTAACCTGTTGCGT (site TAGGAACCTAC) | 3.35
14 | TAGGAAGCTTGGGTTCTAACCTGTTGCGA (site TAGAAAGCTTG) | 0.108
15 | TAGGAAGCTTGGGTTCTAACCTGTTGCGA (site TAGGAAGCTTC) | 2.34
16 | TAGGACTCTTGGGTTCTAACCTGTTGCAT (site CCTCGTCCTGG) | 0.0204
17 | TAGGACTCTTGGGTTCTAACCTGTTGCAT (site TAGGACTCTAT) | 1.79
18 | TAGGAGACTTGGGTTCTAACCTGTTGCCC (site CAGGAGACTAG) | 0.0355
19 | TAGGAGACTTGGGTTCTAACCTGTTGCCC (site TAGGAGACTGG) | 1.99
20 | TAGGAGACTTGGGTTCTAACCTGTTGCGT (site TAGGAAACTAC) | 1.42
21 | TAGGAGACTTGGGTTCTAACCTGTTGCGT (site TAGGACACTAC) | 0.642
22 | TAGGAGACTTGGGTTCTAACCTGTTGCGT (site TAGGAGACTAC) | 2.56

Row | Sequence | recombinant barcode read abundance (log10)
23 | TAGGAGACTTGGGTTCTAACCTGTTGCGT (site TAGGATACTAC) | 0.233
24 | TAGGAGCCTTGGGTTCTAACCTGTTGCGT (site TACGAACCTAC) | 0.323
25 | TAGGAGCCTTGGGTTCTAACCTGTTGCGT (site TAGGAGCCTAC) | 3.27
26 | TAGGCCACTTGGGTTCTAACCTGTTGCCT (site TAGGCCACTAA) | 0.0204
27 | TAGGCCACTTGGGTTCTAACCTGTTGCCT (site TAGGCCACTAC) | 0.122
28 | TAGGCCACTTGGGTTCTAACCTGTTGCCT (site TAGGCCACTAG) | 0.592
29 | TAGGCCACTTGGGTTCTAACCTGTTGCCT (site TAGGCCACTAT) | 0
30 | TAGGCGCCTTGGGTTCTAACCTGTTGCAT (site TAGGCGCCTAA) | 4.17
31 | TAGGCGCCTTGGGTTCTAACCTGTTGCAT (site TAGGCGCCTAC) | 0.723
32 | TAGGCGCCTTGGGTTCTAACCTGTTGCAT (site TAGGCGCCTAG) | 0.0713
33 | TAGGCGCCTTGGGTTCTAACCTGTTGCAT (site TAGGCGCCTAT) | 0.299
34 | TAGGCGCCTTGGGTTCTAACCTGTTGCGT (site TAGGCGCCTAA) | 0.0787
35 | TAGGCGCCTTGGGTTCTAACCTGTTGCGT (site TAGGCGCCTAC) | 0.735
36 | TAGGCGCCTTGGGTTCTAACCTGTTGCGT (site TAGGCGCCTAG) | 0.0904
37 | TAGGCGCCTTGGGTTCTAACCTGTTGCGT (site TAGGCGCCTAT) | 0.249
38 | TAGGCGGCTTGGGTTCTAACCTGTTGCGT (site AGCTGTCCTCT) | 0.0593
39 | TAGGCGGCTTGGGTTCTAACCTGTTGCGT (site TAGGCGGCTAC) | 2.63
40 | TAGGCTCCTTGGGTTCTAACCTGTTGCAA (site TAGGCTCCTAT) | 0.309
41 | TAGGCTCCTTGGGTTCTAACCTGTTGCAA (site TAGGCTCCTCT) | 0.0906
42 | TAGGCTCCTTGGGTTCTAACCTGTTGCAA (site TAGGCTCCTGT) | 0
43 | TAGGCTCCTTGGGTTCTAACCTGTTGCAA (site TAGGCTCCTTT) | 1.41
44 | TAGGCTCCTTGGGTTCTAACCTGTTGCCG (site TAGCCTACTCG) | 0.00951

Row | Sequence | recombinant barcode read abundance (log10)
45 | TAGGCTCCTTGGGTTCTAACCTGTTGCCG (site TAGGCTCCTCG) | 0.412
46 | TAGGCTCCTTGGGTTCTAACCTGTTGCCT (site TAAGATCCTAG) | 0.205
47 | TAGGCTCCTTGGGTTCTAACCTGTTGCCT (site TAGGCTCCTAG) | 0
48 | TAGGGGACTTGGGTTCTAACCTGTTGCAA (site CGTCCTGCTAA) | 0.0997
49 | TAGGGGACTTGGGTTCTAACCTGTTGCAA (site TAGGGGACTTT) | 2.27
50 | TAGGTATCTTGGGTTCTAACCTGTTGCAG (site CCTTGTGCTAC) | 0.156
51 | TAGGTATCTTGGGTTCTAACCTGTTGCAG (site TAGGTATCTCT) | 2.01
52 | TAGGTCCCTTGGGTTCTAACCTGTTGCAT (site TAGGTACCTAT) | 0.389
53 | TAGGTCCCTTGGGTTCTAACCTGTTGCAT (site TAGGTCCCTAT) | 1.85
54 | TAGGTCCCTTGGGTTCTAACCTGTTGCAT (site TAGGTGCCTAT) | 0.0967
55 | TAGGTCCCTTGGGTTCTAACCTGTTGCAT (site TAGGTTCCTAT) | 0.228
56 | TAGGTCCCTTGGGTTCTAACCTGTTGCGA (site AAGGTCCCTCC) | 0.0896
57 | TAGGTCCCTTGGGTTCTAACCTGTTGCGA (site TAGGTCCCTTC) | 3.11
58 | TAGTAAGCTTGGGTTCTAACCTGTTGCCT (site TAGTAAGCTAG) | 1.23
59 | TAGTAAGCTTGGGTTCTAACCTGTTGCCT (site TAGTATCCTAG) | 0.088
60 | TAGTACCCTTGGGTTCTAACCTGTTGCAA (site TAGTACCCTAT) | 0.0814
61 | TAGTACCCTTGGGTTCTAACCTGTTGCAA (site TAGTACCCTCT) | 0.104
62 | TAGTACCCTTGGGTTCTAACCTGTTGCAA (site TAGTACCCTGT) | 0.0816
63 | TAGTACCCTTGGGTTCTAACCTGTTGCAA (site TAGTACCCTTT) | 0.801
64 | TAGTACGCTTGGGTTCTAACCTGTTGCAG (site TAGTAAGCTCA) | 0.12
65 | TAGTACGCTTGGGTTCTAACCTGTTGCAG (site TAGTACGCTCT) | 1.8
66 | TAGTACGCTTGGGTTCTAACCTGTTGCTT (site ACACGGCCTCG) | 0.331
